The values below come from patent publication US9359392B2, “Dendrimer scaffolds for pharmaceutical use” (Victoria Link Limited, priority 2012, dated 2016).

Series [1] can be described thus: Stability under forcing degradation conditions with HPLC monitoring. The format is physicochemical. An excerpt:
Assessment of Potential Cytotoxicity

For the next series, the system named is sheep spleen cells. Kind of series: Assessment of potential cytotoxicity: percentage cell viability versus a PBS control. The format is cell-based. The conditions noted are these: 36.5° C. The protocol:
The potential cytotoxic properties of compounds 12, 13 and 14 were evaluated by measuring percentage cell viability of sheep spleen cells versus a PBS control after 24 h and 48 h exposure to 0.01, 0.1 and 1 mg/mL solutions of each compound in PBS at 36.5° C.

A short description of series [2]: Water relaxivity measurements (T1, inversion recovery NMR). The format is physicochemical. The conditions noted are these: 500 MHz (11.75 T), 30° C., aqueous solution. The protocol:
Water relaxivity measurements provide an indication of whether a material will increase contrast in MRI imaging techniques. Water relaxivity measurements were performed in aqueous solutions. T1 measurements were made on a 500 MHz (11.75 T) Bruker NMR using a standard inversion recovery sequence (180-t-90) at 30° C. The relaxivity of water in D2O in the presence of (meglumine)2[Gd(III)(DPTA)(OH2)]

For series [3] the following is noted: comparator salt, stated without test; cited from earlier work.

With “2-Aminoacetic acid(N,N):{6,9-diaza-3-oxa-7-oxononanyl(9,9)}2x,4x,8x^G1,G2,G3:(6-aza-3,11-dioxa-7,10-dioxoundecanyl)16-cascadane [compound 13]”, the degradation in series [1] (24 h in 1% H2O2 at 20° C.) is on record as 63%; in series [1] (24 h in 1 M HCl at 20° C.), 12%; in series [1] (24 h in 1 M NaOH at 20° C.), 30%; in series [1] (24 h neat at 40° C.), “No observable degradation”; in series [1] (24 h neat at 80° C.), 41%. For the same molecule, the Cell viability in the series on sheep spleen cells (0.01 mg/mL in PBS, 24 h) turned out to be 107%; in the series with sheep spleen cells (0.01 mg/mL in PBS, 48 h), 97%; with sheep spleen cells (0.1 mg/mL in PBS, 24 h) it was 104%; in the series with sheep spleen cells (0.1 mg/mL in PBS, 48 h) it was 98%; in the series on sheep spleen cells (1 mg/mL in PBS, 24 h), 106%; with sheep spleen cells (1 mg/mL in PBS, 48 h) it was 100%.
With “2-Aminoacetic acid(N,N):{6,9-diaza-3-oxa-7-oxononanyl(9,9)}2x,4x,8x^G1,G2,G3:(6-aza-3-oxa-7-oxooctanyl)16-cascadane [compound 14]”, the Cell viability in the series with sheep spleen cells (0.01 mg/mL in PBS, 24 h) is given as 104%; with sheep spleen cells (0.01 mg/mL in PBS, 48 h), 99%; with sheep spleen cells (0.1 mg/mL in PBS, 24 h), 104%; in the series with sheep spleen cells (0.1 mg/mL in PBS, 48 h), 97%; with sheep spleen cells (1 mg/mL in PBS, 24 h), 97%; in the series on sheep spleen cells (1 mg/mL in PBS, 48 h), 90%.
For “2-Aminoacetic acid(N,N):{6,9-diaza-3-oxa-7-oxononanyl(9,9)}2x,4x,8x^G1,G2,G36:(5-amino-3-oxapentanyl)16-cascadane [compound 12]”, the Cell viability with sheep spleen cells (0.01 mg/mL in PBS, 24 h) was found to be 94%; in the series on sheep spleen cells (0.01 mg/mL in PBS, 48 h), 84%; with sheep spleen cells (0.1 mg/mL in PBS, 24 h), 92%; in the series on sheep spleen cells (0.1 mg/mL in PBS, 48 h), 85%; in the series with sheep spleen cells (1 mg/mL in PBS, 24 h), 99%; in the series with sheep spleen cells (1 mg/mL in PBS, 48 h), 87%.
As for `CNC[C@H](O)[C@@H](O)[C@H](O)[C@H](O)CO.CNC[C@H](O)[C@@H](O)[C@H](O)[C@H](O)CO.O=C([O-])CN(CCN(CC(=O)[O-])CC(=O)O)CCN(CC(=O)[O-])CC(=O)O.[Gd+3]` [(meglumine)2[Gd(III)(DPTA)(OH2)], reference compound], the “relaxivity of water in D2O” value in series [2] stood at 3.84 mM⁻¹ s⁻¹.
`O=C([O-])CN(CCN(CC(=O)[O-])CC(=O)[O-])CCN(CC(=O)[O-])CC(=O)[O-].[Gd+3].[Na+].[Na+]` [Gd-DPTA disodium salt]: the water solubility result in series [3] is given as “sparingly water soluble”.
Turning to “Gadolinium complex of 2-aminoacetic acid(N,N):{6-aza-3-oxahexanyl(6,6)}2x^G1: (carboxymethyl)4-cascadane [34-Gd]”, the “relaxivity of water in D2O” value in series [2] stood at 1.20 mM⁻¹ s⁻¹.
